How the values were obtained:
MMP-2 = MMP-2 (Rattus norvegicus (Rat), UniProt P33436); assay: In vitro zymography assay (gelatin), MMP-2; assay type: biochemical
Experimental: MMP-2 and MMP-9 enzymes were isolated from rat hearts and from rat spleen while human, recombinant MMP-1 and MMP-13 enzymes used were commercial. MMP-2, -9, -13 enzymes were separated by electrophoresis during non-reducing conditions on 8% SDS-polyacrylamide gels copolymerized with 2 mg/ml gelatin from porcine skin (Sigma Aldrich) while MMP-1 was separated under the same conditions on 8% SDS-polyacrylamide gels copolymerized with 2 mg/ml casein (Sigma Aldrich). […] In case of MMP-13 p-aminophenylmercuric acetate (APMA) was used for enzyme activation at 37° C. for 30 min. After electrophoresis, gels were washed in 2.5% Triton-X 100 with agitation and then incubated for 20 hrs at 37° C. in enzyme incubation buffer (50 mM Tris-HCl, pH 7.5, containing 5 mM CaCl2, 200 mM NaCl) with or without MMP inhibitor. Zymographic gels were stained in Coomassie Brilliant Blue R-250 and de-stained. Gelatin and casein zymograms were scanned. MMP activity is detected as a white zone on a blue background and the clear bands in the gel can be quantified by densitometry. The obtained density values were measured and % inhibition values calculated (Kupai et al., 2010). The table below summarizes the prescreen inhibition values determined for different MMP inhibitors on MMP1, -2, -9, -13.

[1] = test system: neonatal rat cardiac myocytes; assay: Cytoprotective effect in cardiac myocytes subjected to hypoxia and reoxygenation; assay type: cell-based
In short: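 Day-3 neonatal rat cardiomyocytes subjected to 4 h simulated ischemia (95% N2/5% CO2, hypoxic solution, 37 °C) or normoxia, then reoxygenation. MMP inhibitors at EC5, EC10, EC20 and EC50 (DMSO vehicle; ilomastat 0.5 µM control) present throughout; viability by calcein-AM relative to digitonin/propidium iodide total cell count.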

MMP9 = MMP9 (Homo sapiens, UniProt P14780); assay: MMP activity assay (fluorogenic substrate), MMP9 catalytic domain; assay type: biochemical; details: Table 2

Sequence of MMP-2 (P33436 110-662): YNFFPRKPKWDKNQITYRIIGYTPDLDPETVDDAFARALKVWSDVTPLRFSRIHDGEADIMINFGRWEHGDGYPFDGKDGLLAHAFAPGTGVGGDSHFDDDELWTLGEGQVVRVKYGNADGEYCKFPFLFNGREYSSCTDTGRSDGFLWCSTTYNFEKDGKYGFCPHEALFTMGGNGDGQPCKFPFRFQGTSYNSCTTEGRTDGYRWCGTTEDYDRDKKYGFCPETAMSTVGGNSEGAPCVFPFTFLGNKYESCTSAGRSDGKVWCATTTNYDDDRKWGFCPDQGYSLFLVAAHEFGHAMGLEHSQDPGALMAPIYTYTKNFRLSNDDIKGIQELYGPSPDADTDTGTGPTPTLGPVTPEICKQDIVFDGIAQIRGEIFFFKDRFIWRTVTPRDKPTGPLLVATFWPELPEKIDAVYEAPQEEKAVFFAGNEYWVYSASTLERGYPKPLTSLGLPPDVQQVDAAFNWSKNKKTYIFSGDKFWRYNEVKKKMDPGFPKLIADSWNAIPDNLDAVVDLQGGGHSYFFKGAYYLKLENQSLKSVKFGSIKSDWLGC

Structure (SMILES): O=C(O)c1csc(CN(Cc2ccc(F)cc2)Cc2ccc(OCc3cccnc3)cc2)n1 [Compound 1, 2-({[(4-Fluorophenyl)methyl]({[4-(pyridin-3-ylmethoxy)phenyl]methyl})amino}methyl)-1,3-thiazole-4-carboxylic acid]
- inhibition at 1 µM (MMP-2; 1 μM, % ± SD, read-out: % inhibition MMP-2 (72 kDa)): 100%
- inhibition at 100 µM (MMP-2; 100 μM, % ± SD, read-out: % inhibition MMP-2 (72 kDa)): 100%
- selectivity in the inhibition of different MMP isoenzymes (MMP-2; summary in words, MMP1, MMP2, MMP9, MMP13): highly selective for MMP2
- IC50 (MMP-2; zymography, Table 8, read-out: IC50 on MMP-2): 11.2 µM
- Cytoprotective effect, % cell survival as compared to vehicle DMSO ([1]; normoxia, EC5 concentration 2.6 microM): 120 ± 2 %
- Cytoprotective effect, % cell survival as compared to vehicle DMSO ([1]; normoxia, EC10 concentration 6.3 microM): 99 ± 2%
- Cytoprotective effect, % cell survival as compared to vehicle DMSO ([1]; normoxia, EC20 concentration 10.4 microM): 94 ± 2%
- Cytoprotective effect, % cell survival as compared to vehicle DMSO ([1]; normoxia, EC50 concentration 17.7 microM): 86 ± 2 %
- Cytoprotective effect, % cell survival as compared to vehicle DMSO ([1]; simulated ischemia, EC5 concentration 2.6 microM): 125 ± 6 %
- Cytoprotective effect, % cell survival as compared to vehicle DMSO ([1]; simulated ischemia, EC10 concentration 6.3 microM): 109 ± 2%
- Cytoprotective effect, % cell survival as compared to vehicle DMSO ([1]; simulated ischemia, EC20 concentration 10.4 microM): 106 ± 2%
- Cytoprotective effect, % cell survival as compared to vehicle DMSO ([1]; simulated ischemia, EC50 concentration 17.7 microM): 97 ± 2%
- IC50 (MMP9): 37 µM
